For one compound, IC50 results are on record in BindingDB's records for doi:10.7270/Q26T0K34 (The Scripps Research Institute Molecular Screening Center, 2010).

The experiment addresses Peroxisome proliferator-activated receptor gamma (Homo sapiens, UniProt P37231). As to the kind of experiment: PubChem AID 463257.

Sequence of Peroxisome proliferator-activated receptor gamma (P37231 whole entry, looked up): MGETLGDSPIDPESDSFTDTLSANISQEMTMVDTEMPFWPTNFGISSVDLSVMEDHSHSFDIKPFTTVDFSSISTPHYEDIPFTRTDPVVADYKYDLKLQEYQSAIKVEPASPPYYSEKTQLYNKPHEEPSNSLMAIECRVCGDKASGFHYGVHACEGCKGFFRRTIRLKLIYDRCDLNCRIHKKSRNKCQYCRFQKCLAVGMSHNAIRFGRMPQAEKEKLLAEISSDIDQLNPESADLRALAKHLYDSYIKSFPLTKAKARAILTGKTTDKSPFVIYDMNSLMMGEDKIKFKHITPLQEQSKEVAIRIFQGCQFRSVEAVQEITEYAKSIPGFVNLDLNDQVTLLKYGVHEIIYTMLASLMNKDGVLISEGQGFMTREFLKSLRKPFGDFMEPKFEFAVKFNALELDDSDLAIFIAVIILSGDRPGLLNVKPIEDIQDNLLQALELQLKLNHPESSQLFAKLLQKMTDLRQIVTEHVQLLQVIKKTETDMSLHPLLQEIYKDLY

By IC50 is commonly meant the concentration needed to halve the response being measured. A low value points to inhibition by little substance. With `COc1ccc(-n2cc(O)c(-c3nc(-c4ccccc4)cs3)c2N)cc1` [5-amino-1-(4-methoxyphenyl)-4-(4-phenyl-1,3-thiazol-2-yl)-2H-pyrrol-3-one], it took 24.7 µM to reach half-maximal inhibition (IC50).
